In publication PMC10381170, “1,3,4-Oxadiazole and 1,3,4-Thiadiazole Nortopsentin Derivatives against Pancreatic Ductal Adenocarcinoma: Synthesis, Cytotoxic Activity, and Inhibition of CDK1” (Marine Drugs, 2023):

Experiments:
Format in all cases: cell-based, human
CDK1 = CDK1 ELISA in PDAC-3; details: PDAC-3, 10 µM, 24 h, vs DMSO control, p < 0.01
Description: The expression of CDK1 was detected and quantified using an Enzyme-Linked Immunosorbent Assay (ELISA, Human cyclin-dependent kinase 1 (CDK1) ELISA Kit, Catalog Number: MBS707090) according to the manufacturer’s protocol and our previous studies. Volumes of 100 µL of the standard and the sample were added for each well, and the plates were incubated for 2 h at 37 °C. Then, the liquid was removed, and 100 µL of biotin-antibody was added to each well; the plates were then incubated for 1 h at 37 °C. The medium was removed, and the plates were washed with wash buffer (200 µL). Subsequently, 100 µL of HRP-avidin was added to each well, and the plates were incubated for 1 h at 37 °C. The washing process was repeated five times. At the end, 90 µL of TMB substrate was added to each well, and the plates were incubated for 30 min at 37 °C in the dark. Finally, 50 µL of stop solution was added to each well. The optical density of each well was determined using a microplate reader set to 450 nm.

Panc-1-GR cells = assay: SRB antiproliferative assay, gemcitabine-resistant Panc-1-GR
Description: (§1) The cytotoxic activity of the nortopsentin derivatives 3b, 3e, 4c, 5b, and 6c on pancreatic cancer cells (BxPC-3, Panc-1, Suit-2, Capan-1, PaTu-T, primary PDAC-3 and resistant Panc-1-GR cells) was determined by the sulforhodamine B (SRB) chemosensitivity assay, as described previously. Cells were plated in 96-well flat-bottom plates at final concentrations ranging from 3000–5000 cells/well in 100 µL of medium. After a 24 h pre-incubation period, cells were treated with the compounds at nine screening concentrations (from 0.1 μM to 40 μM) in triplicate and incubated at 37 °C for 72 h. After the treatment, cells were fixed with 25 µL of cold 50% trichloroacetic acid (TCA) for each well and incubated at 4 °C for 1 h. Afterwards, plates were washed five times with demi-water and air-dried overnight. Then, the plates were stained with 50 µL of 0.4% SRB solution in 1% acetic acid for 15 min. The excess stain was rinsed off by placing the plates under running 1% acetic acid and allowed to dry at room temperature overnight. SRB staining was rinsed with 150 µL tris(hydroxymethyl)aminomethane solution pH = 8.8 (TRIS-base), and the optical density (OD) was read at 492 nm. Each assay was performed in triplicate and assays were repeated at least three times. The comparison of the average optical density of the growth in control wells with that in the sample wells allowed the estimation of the percentage of cell growth, using the following equation: % Cell Growth = (mean ODcompound − mean ODday zero plate)/(mean ODcells − mean ODday zero plate) × 100
(§2) The results obtained were adjusted by the day zero plate (wells containing cells growing for only 24 h) and normalized by the control cells (wells with untreated cells) to obtain the rate of viable cells.

PDAC-3 cells = assay: Cell-cycle analysis by PI flow cytometry, PDAC-3
Description: (§3) Cell cycle perturbation was analyzed by flow cytometry. Optimized numbers of cells (5 × 10^5 cells/mL) were seeded in 6-well plates. […] After treatment, the cells were harvested by trypsinization (250 µL trypsin-EDTA/well), incubated until the cells detached, re-suspended using the same medium used for culture, collected in specific FACS (Fluorescence Activated Cell Sorting) tubes, and washed with 1.5 mL phosphate-buffered saline (PBS). The samples were then centrifuged to form a pellet (5 min at 1500 rpm). These pellets were fixed in 1 mL of ice-cold 70% ethanol, added drop by drop during vortex, and placed in the refrigerator at 4 °C. After overnight incubation, the cells were washed twice with PBS, centrifuged (5 min at 1500 rpm), re-suspended in […] of RNase ([…]) and incubated for 30 min at 37 °C. Finally, […] of propidium iodide solution (PI, […]) was added, and the cell distribution in the various phases of the cell cycle was analyzed in a FACS Calibur instrument. Data analysis was carried out with FACSdiva software (Becton Dickinson), while cell cycle distribution was determined using Modfit software (Verity-Software, Topsham, ME, USA).

Suit-2 cells [1] = assay: SRB antiproliferative assay, Suit-2
Description: as §1, §2

Suit-2 cells [2] = assay: Cell-cycle analysis by PI flow cytometry, Suit-2
Description: as §3

[3] = Suit-2, 2 μM, 24 h (control 23%)
[4] = Suit-2, 4-fold IC50, 24 h (control 23%)

Cn1cc(-c2nnc(-c3cn(C)c4ncccc34)o2)c2ccccc21 [3b, 1-methyl-3-[5-(1-methyl-1H-indol-3-yl)-1,3,4-oxadiazol-2-yl]-7-azaindole]
CDK1 expression by ELISA (CDK1): reduction in CDK1 expression | Cell growth percentage (Panc-1-GR cells; 10 μM, 72 h exposure): 22.47% | IC50 (Panc-1-GR cells; Homo sapiens, 72 h, mean ± SEM, read-out: Half-maximal inhibitory concentration (IC50)): 8 ± 2.8 µM | percentage of cells in G2-M phase (PDAC-3 cells; PDAC-3, 2 μM, 24 h (control 16%)): 23% | percentage of cells in S phase (PDAC-3 cells; PDAC-3, 2 μM, 24 h (control 25%)): 23% | percentage of cells in G0-G1 phase (PDAC-3 cells; PDAC-3, 2 μM, 24 h (control 59%)): 54% | percentage of cells in G2-M phase (PDAC-3 cells; PDAC-3, 4-fold IC50, 24 h (control 16%)): 52% | percentage of cells in S phase (PDAC-3 cells; PDAC-3, 4-fold IC50, 24 h (control 25%)): 19% | percentage of cells in G0-G1 phase (PDAC-3 cells; PDAC-3, 4-fold IC50, 24 h (control 59%)): 29% | IC50 (Suit-2 cells [1]; Homo sapiens, Suit-2, 72 h, mean ± SEM, read-out: Half-maximal inhibitory concentration (IC50)): 1.4 ± 0.74 µM | Cell growth percentage (Suit-2 cells [1]; Suit-2, 10 μM, 72 h exposure): 18.34% | percentage of cells in G2-M phase (Suit-2 cells [2]; [3]): 75% | percentage of cells in S phase (Suit-2 cells [2]; [3]): 15% | percentage of cells in G0-G1 phase (Suit-2 cells [2]; Suit-2, 2 μM, 24 h (control 54%)): 10% | percentage of cells in G2-M phase (Suit-2 cells [2]; [4]): 76% | percentage of cells in S phase (Suit-2 cells [2]; [4]): 14% | percentage of cells in G0-G1 phase (Suit-2 cells [2]; Suit-2, 4-fold IC50, 24 h (control 54%)): 10%
